Laboratory results taken from US12509444B2, “Compounds and methods for CD73 modulation and indications therefor” (Plexxikon Inc., priority 2019, dated 2025).

Key:
[1] = target: T1, Human CD73 (amino acid residues 27-549) (Homo sapiens, UniProt P21589); experiment: CD73 enzymatic assay (luciferase-based indirect assay, CellTiter-Glo); assay type: biochemical; conditions: 0.4 nM CD73, 150 μM AMP, 1 hour at room temperature
T1 construct: Human CD73 (amino acid residues 27-549); His tag (N); made in house; host or cells: E. coli
T1 sequence (P21589 27-549): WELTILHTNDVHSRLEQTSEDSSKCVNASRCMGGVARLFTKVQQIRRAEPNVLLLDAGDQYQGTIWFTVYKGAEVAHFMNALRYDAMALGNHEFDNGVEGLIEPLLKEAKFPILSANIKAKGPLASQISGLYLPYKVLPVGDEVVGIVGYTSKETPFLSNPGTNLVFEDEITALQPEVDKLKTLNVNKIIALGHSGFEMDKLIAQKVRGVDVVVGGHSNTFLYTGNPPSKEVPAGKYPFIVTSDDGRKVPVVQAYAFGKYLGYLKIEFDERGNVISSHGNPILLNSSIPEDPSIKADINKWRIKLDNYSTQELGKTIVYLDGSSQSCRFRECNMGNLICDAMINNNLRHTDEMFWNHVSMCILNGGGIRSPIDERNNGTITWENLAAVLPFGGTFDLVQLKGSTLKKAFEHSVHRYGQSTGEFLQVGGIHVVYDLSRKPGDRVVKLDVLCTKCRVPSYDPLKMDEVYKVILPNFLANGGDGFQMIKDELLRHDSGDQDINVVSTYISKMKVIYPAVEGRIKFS
In short: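 Residual AMP inhibits luciferase, so luminescence reports CD73 turnover; read with CellTiter-Glo 2.0 plus 1 μM final ATP, 30 min. Reaction used 0.4 nM N-His CD73 (27-549, E. coli), 150 μM AMP, HEPES pH 7.4 with Tween 20, 1 h at room temperature. IC50 fitted by nonlinear regression.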

human CD73 = target: T2, human CD73 (Homo sapiens, UniProt P21589); experiment: Inhibitor activity against CD73 in cell based assay (CD73 expressing CHO-K1 cells); conditions: CHO-K1 cells expressing human CD73, 150 μM AMP, 4 hours of incubation; read-out: CHO-K1 CELL VARIANT: CD73 IC50
T2 construct: expressed in transfected cells
T2 sequence (P21589 27-549): T1 sequence (P21589 27-549)
In short: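 Residual supernatant AMP was quantified via CellTiter-Glo luminescence (1 μM ATP added, 30 min, room temperature) after a 4 h exposure of human CD73-expressing CHO-K1 cells to 150 μM AMP plus compound, top final 10 μM, 8 points. IC50 came from nonlinear regression of percent inhibition.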

| Compound | IC50 [1] [µM] | IC50 (human CD73) [µM] |
| --- | --- | --- |
| O=C(N[C@H]1CCCC(F)(F)C1)O[C@@H]1CCN(c2cnn(CCO)c(=O)c2Cl)C1 [P-0514, (R)-1-(5-chloro-1-(2-hydroxyethyl)-6-oxo-1,6-dihydropyridazin-4-yl)pyrrolidin-3-yl ((S)-3,3-difluorocyclohexyl)carbamate] | 0.001 to 10 | 0.001 to 10 |
| N#CC1(NC(=O)O[C@@H]2CCN(c3cn[nH]c(=O)c3Cl)C2)CCC1 [P-0515, (R)-1-(5-chloro-6-oxo-1,6-dihydropyridazin-4-yl)pyrrolidin-3-yl (1-cyanocyclobutyl)carbamate] | 0.001 to 10 | 0.001 to 10 |
| O=C(NC1CCC1)O[C@@H]1CCN(c2cn[nH]c(=O)c2Cl)C1 [P-0516, (R)-1-(5-chloro-6-oxo-1,6-dihydropyridazin-4-yl)pyrrolidin-3-yl cyclobutylcarbamate] | 0.001 to 10 | 0.001 to 10 |
| CC1(C)C(NC(=O)O[C@@H]2CCN(c3cn[nH]c(=O)c3Cl)C2)C1(C)C [P-0517, (R)-1-(5-chloro-6-oxo-1,6-dihydropyridazin-4-yl)pyrrolidin-3-yl (2,2,3,3-tetramethylcyclopropyl) carbamate] | 0.001 to 10 | 0.001 to 10 |
| O=C(NC1(C(F)(F)F)CCC1)O[C@@H]1CCN(c2cn[nH]c(=O)c2Cl)C1 [P-0518, (R)-1-(5-chloro-6-oxo-1,6-dihydropyridazin-4-yl)pyrrolidin-3-yl (1-(trifluoromethyl)cyclobutyl) carbamate] | 0.001 to 10 | 0.001 to 10 |

Next, values leading:

| IC50 [1] [µM] | IC50 (human CD73) [µM] | Compound |
| --- | --- | --- |
| 0.001 to 10 | 0.001 to 10 | O=C(N[C@H]1CCCC(F)(F)C1)O[C@@H]1CCN(c2cn[nH]c(=O)c2Cl)C1 [P-0511, (R)-1-(5-chloro-6-oxo-1,6-dihydropyridazin-4-yl)pyrrolidin-3-yl ((S)-3,3-difluorocyclohexyl)carbamate] |
| 0.001 to 10 | 0.001 to 10 | O=C(N[C@@H]1CCCC(F)(F)C1)O[C@@H]1CCN(c2cn[nH]c(=O)c2Cl)C1 [P-0512, (R)-1-(5-chloro-6-oxo-1,6-dihydropyridazin-4-yl)pyrrolidin-3-yl ((R)-3,3-difluorocyclohexyl)carbamate] |
| 0.001 to 10 | 0.001 to 10 | O=C(N[C@@H]1CCCC(F)(F)C1)O[C@@H]1CCN(c2cnn(CCO)c(=O)c2Cl)C1 [P-0513, (R)-1-(5-chloro-1-(2-hydroxyethyl)-6-oxo-1,6-dihydropyridazin-4-yl)pyrrolidin-3-yl ((R)-3,3-difluorocyclohexyl)carbamate] |
